In patent publication US10906897B2, “Microbiocidal heterobicyclic derivatives” (priority 2015, dated 2021):

Legend:
[1] = system: Botryotinia fuckeliana (Botrytis cinerea); assay: Botryotinia fuckeliana (Botrytis cinerea) / liquid culture (Gray mould); type: cell-based; conditions: growth inhibition photometrically 3-4 days after application, compared to untreated control
[2] = system: Glomerella lagenarium (Colletotrichum lagenarium); assay: Glomerella lagenarium (Colletotrichum lagenarium) / liquid culture (Anthracnose); type: cell-based; conditions: Colletotrichum orbiculare, growth inhibition photometrically 3-4 days after application, compared to untreated control
[3] = system: Monographella nivalis (Microdochium nivale); assay: Monographella nivalis (Microdochium nivale) / liquid culture (foot rot cereals); type: cell-based; conditions: 96 h, growth inhibition photometrically 4-5 days after application, compared to untreated control
[4] = system: Mycosphaerella graminicola (Septoria tritici); assay: Mycosphaerella graminicola (Septoria tritici) / liquid culture (Septoria blotch); type: cell-based; conditions: Zymoseptoria tritici, growth inhibition photometrically 4-5 days after application, compared to untreated control
[5] = system: Fusarium culmorum; assay: microbe, parasite or virus in culture; type: cell-based; conditions: read-out: control of Fusarium culmorum
[6] = system: Magnaporthe grisea (Pyricularia oryzae); assay: microbe, parasite or virus in culture; type: cell-based; conditions: read-out: control of Magnaporthe grisea
[7] = system: Sclerotinia sclerotiorum; assay: Sclerotinia sclerotiorum / liquid culture (cottony rot); conditions: read-out: control of Sclerotinia sclerotiorum
Experimental: Sclerotinia sclerotiorum/Liquid Culture (Cottony Rot)
Mycelia fragments of a newly grown liquid culture of the fungus are directly mixed into 5 nutrient broth (Vogels broth). After placing a (DMSO) solution of test compound into a microtiter plate (96-well format) the nutrient broth containing the fungal material is added. The test plates are incubated at 24° C. and the inhibition of growth is determined photometrically 3-4 days after application.

[8] = system: Magnaporthe grisea (Pyricularia oryzae); assay: whole plant or invertebrate; type: in vivo; conditions: foliar, read-out: control of Magnaporthe grisea
[9] = system: Gaeumannomyces graminis; assay: Gaeumannomyces graminis / liquid culture (Take-all of cereals); type: cell-based; conditions: growth inhibition photometrically 4-5 days after application, compared to untreated control

SMILES	inhibition of growth at 20 ppm [1] [%]	inhibition of growth at 20 ppm [2] [%]	inhibition of growth at 20 ppm [3] [%]	inhibition of growth at 20 ppm [4] [%]	inhibition of growth at 20 ppm [5] [%]	inhibition of growth at 60 ppm [6] [%]	melting point [°C]	inhibition of growth at 20 ppm [7] [%]	pest or weed control at 200 ppm [8] [%]	inhibition of growth at 20 ppm [9] [%]
CC1(C)N=C(c2cnc3c(C4CC4)cccn23)c2cccc(F)c2C1(C)C [Compound E-22, 1-(8-cyclopropylimidazo[1,2-a]pyridin-3-yl)-5-fluoro-3,3,4,4-tetramethyl-isoquinoline]	≥ 80	≥ 80	≥ 80	≥ 80	–	–	–	–	–	–
CC1(C)N=C(c2cnc3cc(I)ccn23)c2cccc(F)c2C1(C)C [Compound E-44, 5-fluoro-1-(7-iodoimidazo[1,2-a]pyridin-3-yl)-3,3,4,4-tetramethyl-isoquinoline]	≥ 80	≥ 80	≥ 80	≥ 80	≥ 80	–	–	–	–	–
Cc1ccn2c(C3=NC(C)(C)C(C)(C)c4c(F)cccc43)cnc2c1C [Compound E-50, 1-(7,8-dimethylimidazo[1,2-a]pyridin-3-yl)-5-fluoro-3,3,4,4-tetramethyl-isoquinoline]	≥ 80	≥ 80	–	–	≥ 80	≥ 80	185 to 186	≥ 80	–	–
Cc1cccn2c(C3=NCC(C)(C)c4ccccc43)cnc12 [Compound E-51, 4,4-dimethyl-1-(8-methylimidazo[1,2-a]pyridin-3-yl)-3H-isoquinoline]	≥ 80	–	–	–	–	≥ 80	–	≥ 80	–	–
Cc1cccn2c(C3=NC4(CCC4)Cc4ccccc43)cnc12 [Compound E-52, 1-(8-methylimidazo[1,2-a]pyridin-3-yl)spiro[4H-isoquinoline-3,1′-cyclobutane]]	≥ 80	≥ 80	≥ 80	–	–	≥ 80	–	≥ 80	–	–
Cc1ccn2c(C3=NC(C)(C)C(F)(F)c4ccccc43)cnc2c1 [Compound E-55, 4,4-difluoro-3,3-dimethyl-1-(7-methylimidazo[1,2-a]pyridin-3-yl)isoquinoline]	≥ 80	≥ 80	–	–	≥ 80	≥ 80	–	≥ 80	–	–
Cc1ccn2c(C3=NC(C)(C)C(F)(F)c4ccccc43)cnc2c1C [Compound E-57, 1-(7,8-dimethylimidazo[1,2-a]pyridin-3-yl)-4,4-difluoro-3,3-dimethyl-isoquinoline]	≥ 80	≥ 80	≥ 80	–	≥ 80	≥ 80	159 to 161	≥ 80	≥ 50	–
Cc1ccc2c(C3=NC(C)(C)C(C)(C)c4c(F)cccc43)cnn2c1C [Compound E-63, 1-(6,7-dimethylpyrazolo[1,5-a]pyridin-3-yl)-5-fluoro-3,3,4,4-tetramethyl-isoquinoline]	≥ 80	≥ 80	–	–	≥ 80	≥ 80	175 to 176	–	≥ 50	≥ 80
Cc1ccc2c(C3=NC(C)(C)C(=O)c4ccccc43)cnn2c1C [Compound E-64, 1-(6,7-dimethylpyrazolo[1,5-a]pyridin-3-yl)-3,3-dimethyl-isoquinolin-4-one]	≥ 80	≥ 80	≥ 80	–	≥ 80	≥ 80	152 to 153	≥ 80	–	≥ 80
Cc1ccc2c(C3=NC(C)(C)C(F)(F)c4ccccc43)cnn2c1C [Compound E-65, 1-(6,7-dimethylpyrazolo[1,5-a]pyridin-3-yl)-4,4-difluoro-3,3-dimethyl-isoquinoline]	≥ 80	≥ 80	≥ 80	–	≥ 80	≥ 80	–	≥ 80	–	≥ 80
Cc1cccc2c(C3=NC(C)(C)C(F)(F)c4ccccc43)cnn12 [Compound E-66, 4,4-difluoro-3,3-dimethyl-1-(7-methylpyrazolo[1,5-a]pyridin-3-yl)isoquinoline]	≥ 80	≥ 80	≥ 80	–	≥ 80	≥ 80	–	≥ 80	≥ 50	≥ 80
Cc1cccc2c(C3=NC(C)(C)C(=O)c4ccccc43)cnn12 [Compound E-67, 3,3-dimethyl-1-(7-methylpyrazolo[1,5-a]pyridin-3-yl)isoquinolin-4-one]	≥ 80	≥ 80	≥ 80	–	≥ 80	≥ 80	110 to 112	≥ 80	–	–
Cc1cccn2ncc(C3=NC(C)(C)C(F)(F)c4ccccc43)c12 [Compound E-69, 4,4-difluoro-3,3-dimethyl-1-(4-methylpyrazolo[1,5-a]pyridin-3-yl)isoquinoline]	≥ 80	≥ 80	≥ 80	–	≥ 80	≥ 80	113 to 114	≥ 80	≥ 50	≥ 80
Cc1ccc2c(C3=NC(C)(C)C(F)(F)c4cc(F)ccc43)cnn2c1C [Compound E-70, 1-(6,7-dimethylpyrazolo[1,5-a]pyridin-3-yl)-4,4,6-trifluoro-3,3-dimethyl-isoquinoline]	≥ 80	≥ 80	≥ 80	–	≥ 80	≥ 80	–	≥ 80	≥ 50	–
Cc1ccc2c(C3=NC(C)(C)C(F)(F)c4c(F)cccc43)cnn2c1C [Compound E-71, 1-(6,7-dimethylpyrazolo[1,5-a]pyridin-3-yl)-4,4,5-trifluoro-3,3-dimethyl-isoquinoline]	≥ 80	≥ 80	≥ 80	–	≥ 80	≥ 80	–	≥ 80	≥ 50	≥ 80
Cc1ccc2c(C3=NC(C)(C)C(=O)c4c(F)cccc43)cnn2c1C [Compound E-72, 1-(6,7-dimethylpyrazolo[1,5-a]pyridin-3-yl)-5-fluoro-3,3-dimethyl-isoquinolin-4-one]	≥ 80	≥ 80	≥ 80	–	≥ 80	≥ 80	139 to 141	≥ 80	–	–
Cc1c(Br)ccc2c(C3=NC(C)(C)C(F)(F)c4ccccc43)cnn12 [Compound E-79, 1-(6-bromo-7-methyl-pyrazolo[1,5-a]pyridin-3-yl)-4,4-difluoro-3,3-dimethyl-isoquinoline]	≥ 80	≥ 80	–	–	≥ 80	≥ 80	180 to 182	≥ 80	–	≥ 80
CC1(C)N=C(c2cnn3cccc(F)c23)c2ccccc2C1(F)F [Compound E-89, 4,4-difluoro-1-(4-fluoropyrazolo[1,5-a]pyridin-3-yl)-3,3-dimethyl-isoquinoline]	≥ 80	≥ 80	≥ 80	–	≥ 80	≥ 80	–	≥ 80	–	–
Cc1c(Cl)ccc2c(C3=NC(C)(C)C(F)(F)c4ccccc43)cnn12 [Compound E-91, 1-(6-chloro-7-methyl-pyrazolo[1,5-a]pyridin-3-yl)-4,4-difluoro-3,3-dimethyl-isoquinoline]	≥ 80	≥ 80	≥ 80	–	≥ 80	≥ 80	166 to 168	≥ 80	≥ 50	≥ 80
COc1cccc2c(C3=NC(C)(C)C(F)(F)c4ccccc43)cnn12 [Compound E-92, 4,4-difluoro-1-(7-methoxypyrazolo[1,5-a]pyridin-3-yl)-3,3-dimethyl-isoquinoline]	≥ 80	≥ 80	≥ 80	–	≥ 80	≥ 80	120 to 124	–	≥ 50	≥ 80
Cc1ccc2c(C3=NC4(CC4)C4(CC4)c4ccccc43)cnn2c1C [Compound E-94]	–	≥ 80	≥ 80	–	≥ 80	≥ 80	–	–	≥ 50	≥ 80
